Here are results for 20 molecules from patent US10669272B2, “Substituted naphthyridinone compounds useful as T cell activators” (BRISTOL-MYERS SQUIBB COMPANY, priority 2018, dated 2020).

Read-outs that look alike come from different tables or passages of the source.

Assay [1] has as its system OT-1 CD8+ T cells with SIINFEKL-loaded MC38 tumor cells. The assay is described as follows: Murine cytotoxic T lymphocyte assay (IFN-γ, OT-1 CTL with MC38 tumor cells). Format: cell-based, mouse. The following applies: Mus musculus, MC-38; read-out: msCTL INFg IC50. The text has this: 5. Murine Cytotoxic T Lymphocyte Assay
An antigen-specific cytolytic T-cell (CTL) assay was developed to evaluate functionally the ability of DGKα and DGKζ inhibitors to enhance effector T cell mediated tumor cell killing activity. CD8+ T-cells isolated from the OT-1 transgenic mouse recognize antigen presenting cells, MC38, that present the ovalbumin derived peptide […]. Recognition of the cognate antigen initiates the cytolytic activity of the OT-1 antigen-specific CD8+ T cells.
Functional CTL cells were generated as follows: OT-1 splenocytes from 8-12 week old mice were isolated and expanded in the presence of the […] peptide at 1 μg/mL and mIL2 at 10 U/mL. After three days, fresh media with […] was added. On day 5 of the expansion, the CD8+ T cells were isolated and ready for use. Activated CTL cells may be stored frozen for 6 months. Separately, one million MC38 tumor cells were pulsed with 1 μg/mL of […]-OVA peptide for 3 hours at 37° C. The cells were washed (3×) with fresh media to remove excess peptide. Finally, CTL cells that were pretreated with DGK inhibitors for 1 hour in a 96-well U bottom plate were combined with the antigen loaded MC38 tumor cells at a 1:10 ratio. The cells were then spun at 700 rpm for 5 min and placed in an incubator overnight at 37° C. After 24 hours, the supernatant was collected for analysis of IFN-γ cytokine levels by AlphaLisa purchased from Perkin Elmer.

The next assay addresses T1, human DGKζ (Homo sapiens, UniProt Q13574).
T1 construct: TVMV protease cleavage site (C); Hexa-His (C); made in house; host or cells: Sf9 insect cells (baculovirus, Bac-to-Bac)
The assay is described as follows: DGKζ LIPGLO assay (extruded liposome substrate), in vitro DGK inhibition. In kind it is biochemical. The following applies: read-out: DGKz LIPGLO IC50.

The next assay concerns the target T2, human DGKα (Homo sapiens, UniProt P23743).
T2 construct: TVMV protease cleavage site (C); Hexa-His (C); made in house; host or cells: Sf9 insect cells (baculovirus, Bac-to-Bac)
As to the kind of experiment: DGKα LIPGLO assay (extruded liposome substrate), in vitro DGK inhibition. Format: biochemical. Particulars: read-out: DGKa LIPGLO IC50.

Another assay concerns naïve human CD8 T cells. The assay is described as follows: Human CD8 T cells IFN-γ assay.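 Further: Naïve human CD8 T cells stimulated with plate-bound anti-CD3 and soluble anti-CD28, IFN-γ in supernatant quantified by AlphaLISA and converted to pg/mL.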 Particulars: read-out: HuCD8 INFG Normalized EC50. Format: cell-based.
Another assay has as its system Human venous whole blood. As to the kind of experiment: Human whole blood IFN-γ assay.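 Further: blood from healthy donors exposed to compound for 1 h before stimulation with anti-CD3 and anti-CD28 at 1 µg/mL each, IFN-γ quantified in supernatant by AlphaLISA.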 Format: cell-based. The following applies: human whole blood, read-out: INFg Whole Blood Normalized Agonist EC50.
Where [2] appears, read: normalized to 3 μM reference compound with anti-CD3 plus anti-CD28 as 100% activation.
[3] abbreviates: Homo sapiens, 24 h, normalized to 3 μM reference compound with anti-CD3 plus anti-CD28 as 100% activation.
Where [4] appears, read: Homo sapiens, T-cell, 20 h, normalized to 3 μM reference compound with anti-CD3 plus anti-CD28 as 100% activation.
Setting [5] is: Homo sapiens, T-cell, 20 h, naïve human CD8 T cells, anti-CD3 plus anti-CD28, 3 μM reference compound = 100% activation.
Where [6] appears, read: anti-CD3 plus anti-CD28, 24 hours, 3 μM reference compound = 100% activation.

T1 sequence (Q13574 with tags, fused parts or gaps isoform Q13574-4): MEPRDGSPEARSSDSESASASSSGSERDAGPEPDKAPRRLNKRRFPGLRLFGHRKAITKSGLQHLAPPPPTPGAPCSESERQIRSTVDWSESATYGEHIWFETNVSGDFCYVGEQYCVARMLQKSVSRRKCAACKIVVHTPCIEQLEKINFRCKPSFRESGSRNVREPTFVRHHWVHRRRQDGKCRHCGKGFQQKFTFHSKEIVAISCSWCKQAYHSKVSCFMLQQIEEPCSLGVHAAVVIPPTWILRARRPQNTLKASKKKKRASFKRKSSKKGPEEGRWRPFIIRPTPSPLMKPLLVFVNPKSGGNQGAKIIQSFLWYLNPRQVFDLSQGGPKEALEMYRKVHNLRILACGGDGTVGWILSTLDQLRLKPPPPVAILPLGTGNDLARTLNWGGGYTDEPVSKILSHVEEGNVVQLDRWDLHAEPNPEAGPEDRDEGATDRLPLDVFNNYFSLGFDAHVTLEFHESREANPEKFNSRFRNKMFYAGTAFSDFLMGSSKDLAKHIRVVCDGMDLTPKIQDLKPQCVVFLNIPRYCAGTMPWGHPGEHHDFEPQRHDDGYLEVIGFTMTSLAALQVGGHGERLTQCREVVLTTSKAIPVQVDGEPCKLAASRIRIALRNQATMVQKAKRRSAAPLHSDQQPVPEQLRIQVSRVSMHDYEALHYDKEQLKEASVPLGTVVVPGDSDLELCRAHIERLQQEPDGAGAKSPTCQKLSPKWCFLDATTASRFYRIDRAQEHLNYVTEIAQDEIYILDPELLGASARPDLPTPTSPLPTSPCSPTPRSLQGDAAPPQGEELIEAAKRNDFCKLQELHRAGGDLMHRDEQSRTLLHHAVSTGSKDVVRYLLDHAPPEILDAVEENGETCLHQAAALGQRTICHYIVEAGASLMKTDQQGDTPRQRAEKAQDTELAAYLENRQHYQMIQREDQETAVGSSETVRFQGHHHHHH
T2 sequence (P23743 with tags, fused parts or gaps): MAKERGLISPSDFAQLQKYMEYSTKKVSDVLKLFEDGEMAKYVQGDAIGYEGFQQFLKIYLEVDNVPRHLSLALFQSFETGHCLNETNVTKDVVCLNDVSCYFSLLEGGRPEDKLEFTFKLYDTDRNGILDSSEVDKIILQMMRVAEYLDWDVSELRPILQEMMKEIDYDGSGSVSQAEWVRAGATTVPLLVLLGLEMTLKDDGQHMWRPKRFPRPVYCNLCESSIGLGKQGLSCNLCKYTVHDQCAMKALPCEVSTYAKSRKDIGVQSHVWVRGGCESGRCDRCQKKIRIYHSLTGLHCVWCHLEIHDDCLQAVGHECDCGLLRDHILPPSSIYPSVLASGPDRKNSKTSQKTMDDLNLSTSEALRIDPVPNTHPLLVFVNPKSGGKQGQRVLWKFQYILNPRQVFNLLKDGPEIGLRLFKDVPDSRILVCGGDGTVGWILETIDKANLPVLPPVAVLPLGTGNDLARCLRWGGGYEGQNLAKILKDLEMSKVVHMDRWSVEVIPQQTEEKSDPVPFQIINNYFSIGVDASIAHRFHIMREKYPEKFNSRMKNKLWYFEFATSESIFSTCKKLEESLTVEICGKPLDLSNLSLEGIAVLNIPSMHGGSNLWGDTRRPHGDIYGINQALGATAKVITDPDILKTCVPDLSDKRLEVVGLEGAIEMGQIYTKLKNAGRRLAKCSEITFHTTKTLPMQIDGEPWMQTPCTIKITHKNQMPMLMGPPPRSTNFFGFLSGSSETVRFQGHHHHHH
Protocol for Human venous whole blood: Human Whole Blood IFN-γ Assay
Human venous whole blood (22.5 μL per well), obtained from healthy donors, was pre-treated with compounds for one hour at 37° C. in a humidified 95% air/5% CO2 incubator. The blood was stimulated with 2.5 μL anti-human CD3 and anti-CD28 mAb at a final concentration of 1 μg/mL each for 24 hours at 37° C. IFN-γ in the supernatants was measured using AlphLISA kit (Cat # AL217).
Protocol for naïve human CD8 T cells: Human CD8 T Cells IFN-γ Assay
Frozen naïve human CD8 T cells were thawed in AIM-V media, incubated for 2 h in 37° C., and counted. The 384-well tissue culture plate was coated overnight at 4° C. with 20 μL anti-human CD3 at 0.05 μg/mL in PBS, which was removed off the plate before 40,000 cells per 40 microliters CD8 T cells with 0.1 μg/mL soluble anti-human CD28 were added to each well. The compounds were transferred using an Echo liquid handler to the cell plate immediately after the cells were plated. After 20 h incubation at 37° C. incubator, 3 microliters per well supernatants transferred into a new 384-well white assay plate for cytokine measurement.
Interferon-γ (IFN-γ) was quantitated using the AlphLISA kit (Cat # AL217) as described by the manufacturer manual (Perkin Elmer). The counts from each well were converted to IFN-γ concentration (pg/mL).

Broadly, the IC50 is the concentration that gives 50% inhibition. With `CC[C@@H]1CN(C(c2ccc(F)cc2)c2ccc(F)cc2)CCN1c1cc(=O)n(C)c2ccc(C#N)nc12` [Example 170, (R)-8-(4-(bis(4-fluorophenyl)methyl)-2-ethylpiperazin-1-yl)-5-methyl-6-oxo-5,6-dihydro-1,5-naphthyridine-2-carbonitrile], the IC50 in assay [1] worked out at 2600 nM.

On to `C[C@H]1CN(c2c(Cl)c(=O)n(C)c3ccc(C#N)nc23)CCN1C(c1ccc(F)cc1)c1ccc(F)cc1` [Example 36, (S)-8-(4-(bis(4-fluorophenyl)methyl)-3-methylpiperazin-1-yl)-7-chloro-5-methyl-6-oxo-5,6-dihydro-1,5-naphthyridine-2-carbonitrile], for which the IC50 in assay [1] was determined as 1200 nM.

In the case of `C[C@@H]1CN(c2c(C#N)c(=O)n(C)c3ccc(C#N)nc23)CCN1C(c1ccc(Cl)cc1)c1ccc(Cl)cc1` [Example 103, (R)-8-(4-(bis(4-chlorophenyl)methyl)-3-methylpiperazin-1-yl)-5-methyl-6-oxo-5,6-dihydro-1,5-naphthyridine-2,7-dicarbonitrile], the IC50 in assay [1] is 76 nM.

Take `C[C@@H]1CN(c2cc(=O)n(C)c3ccc(C#N)nc23)[C@@H](C)CN1C(c1ccc(F)cc1)c1ccc(F)cc1` [Example 3, 8-((2S,5R)-4-(bis(4-fluorophenyl)methyl)-2,5-dimethylpiperazin-1-yl)-5-methyl-6-oxo-5,6-dihydro-1,5-naphthyridine-2-carbonitrile]: the IC50 in assay [1] turned out to be 70 nM.

`C[C@@H]1CN(C(c2ccc(F)cc2)c2ccc(F)cc2)[C@H](C)CN1c1cc(=O)n(C)c2ccc(C#N)nc12` [Example 131, 8-((2R,5R)-4-(bis(4-fluorophenyl)methyl)-2,5-dimethylpiperazin-1-yl)-5-methyl-6-oxo-5,6-dihydro-1,5-naphthyridine-2-carbonitrile]: the IC50 in assay [1] amounted to 5900 nM.

In general, EC50 refers to the concentration at which the effect is half-maximal. As for `Cn1c(=O)cc(N2CCN(C(c3ccc(F)cc3)c3ccc(F)cc3)C(C(=O)NC3CC3)C2)c2nc(C#N)ccc21` (single isomer, unassigned) [Example 47, 1-(bis(4-fluorophenyl)methyl)-4-(6-cyano-1-methyl-2-oxo-1,2-dihydro-1,5-naphthyridin-4-yl)-N-cyclopropylpiperazine-2-carboxamide], the IC50 is 5200 nM at human DGKζ (liposome (LIPGLO) assay) and 260000 nM on human DGKα (liposome (LIPGLO) assay). The EC50 was found to be 10000 nM in the assay with naïve human CD8 T cells (setting [2]) and 5000 nM in the assay on Human venous whole blood (setting [3]).

As for `C[C@@H]1CN(c2cc(=O)n(C)c3ccc(C#N)nc23)[C@@H](C)CN1C(c1ccc(F)cc1)c1cccc(F)c1` (single isomer, unassigned) [Example 249], the figures for the IC50 on human DGKζ (liposome (LIPGLO) assay) and on human DGKα (liposome (LIPGLO) assay) were 440 nM and 820 nM, respectively. For the same molecule, the EC50 came to 32 nM in the assay with naïve human CD8 T cells (setting [4]) and 690 nM with Human venous whole blood (setting [3]).

Regarding `C[C@@H]1CN(c2cc(=O)n(C)c3ccc(C#N)nc23)[C@@H](C)CN1C(c1ccc(Cl)cc1)c1ncccc1F` (single isomer, unassigned) [Example 190], the IC50 on human DGKζ (liposome (LIPGLO) assay) amounted to 1100 nM; at human DGKα (liposome (LIPGLO) assay), 220 nM. In addition, the EC50 in the assay with naïve human CD8 T cells (setting [2]) stood at 170 nM; in the assay on Human venous whole blood (setting [2]), 700 nM.

Turning to `C[C@@H]1CN(c2cc(=O)n(C)c3ccc(C#N)nc23)[C@@H](C)CN1Cc1ccc(F)cc1F` [Example 277, 8-[(2S,5R)-4-[(2,4-difluorophenyl)methyl]-2,5-dimethylpiperazin-1-yl]-5-methyl-6-oxo-5,6-dihydro-1,5-naphthyridine-2-carbonitrile], the IC50 came out at 1500 nM at human DGKζ (liposome (LIPGLO) assay) and 250 nM at human DGKα (liposome (LIPGLO) assay). Moreover, the EC50 with naïve human CD8 T cells (setting [4]) was 66 nM; in the assay on Human venous whole blood (setting [3]) it was 840 nM.

Regarding `CCc1cc(F)ccc1C(c1ccc(F)cc1)N1C[C@H](C)N(c2cc(=O)n(C)c3ccc(OC)nc23)C[C@H]1C` (single isomer, unassigned) [Example 233], the IC50 at human DGKζ (liposome (LIPGLO) assay) came to 3600 nM; at human DGKα (liposome (LIPGLO) assay), 27000 nM. For the same molecule, the EC50 is 10000 nM in the assay with naïve human CD8 T cells (setting [2]) and 20000 nM in the assay with Human venous whole blood (setting [3]).

For `C[C@@H]1CN(c2cc(=O)n(C)c3ccc(C#N)nc23)[C@@H](C)CN1C(c1ccccc1)c1cccc(F)c1F` (stereo partly drawn) [Example 276, 8-[(2S,5R)-4-[(2,3-difluorophenyl)(phenyl)methyl]-2,5-dimethylpiperazin-1-yl]-5-methyl-6-oxo-5,6-dihydro-1,5-naphthyridine-2-carbonitrile], the IC50 was 1000 nM on human DGKζ (liposome (LIPGLO) assay) and 1200 nM at human DGKα (liposome (LIPGLO) assay). Moreover, the EC50 with naïve human CD8 T cells (setting [4]) came to 180 nM; in the assay on Human venous whole blood (setting [3]) it was 2400 nM.

`C[C@@H]1CN(c2c(C#N)c(=O)n(C)c3ccc(C#N)nc23)CCN1C(c1cccc(F)c1)c1ccc(F)cn1` (single isomer, unassigned) [Example 925]: the values for the IC50 on human DGKζ (DGKζ liposome (LIPGLO) assay) and on human DGKα (DGKα liposome (LIPGLO) assay) were 2800 nM and 2500 nM, respectively. Further, the results for the EC50 with naïve human CD8 T cells (setting [5]) and in the assay with Human venous whole blood (setting [6]) were 91 nM and 710 nM, respectively.

In the case of `CC[C@H]1CN(C(C)c2ccc(F)cc2)[C@H](C)CN1c1cc(=O)n(C)c2ccc(C#N)nc12` (single isomer, unassigned) [Example 1135], the IC50 is 360 nM at human DGKζ (liposome (LIPGLO) assay) and 18 nM at human DGKα (liposome (LIPGLO) assay). For the same molecule, the figures for the EC50 in the assay on naïve human CD8 T cells (setting [4]) and in the assay on Human venous whole blood (setting [2]) were 22 nM and 320 nM, respectively.

In the case of `C[C@@H]1CN(c2cc(=O)n(C)c3ccc(C#N)nc23)[C@@H](C)CN1C(c1ccc(OC(F)(F)F)cc1)c1ccc(F)cn1` (mixture of isomers) [Example 462, 8-((2S,5R)-4-((5-fluoropyridin-2-yl)(4-(trifluoromethoxy)phenyl)methyl)-2,5-dimethylpiperazin-1-yl)-5-methyl-6-oxo-5,6-dihydro-1,5-naphthyridine-2-carbonitrile], the IC50 came out at 1800 nM on human DGKζ (liposome (LIPGLO) assay) and 140 nM on human DGKα (liposome (LIPGLO) assay). Besides, the EC50 was 20 nM in the assay on naïve human CD8 T cells (setting [4]) and 450 nM in the assay with Human venous whole blood (setting [2]).

In the case of `C[C@@H]1CN(c2cc(=O)n(C)c3ccc(C#N)nc23)[C@@H](C)CN1C(c1ccc(F)cc1)c1nc(C(C)(C)C)no1` (some centres unmarked) [Example 737], the IC50 was found to be 130 nM on human DGKζ (DGKζ liposome (LIPGLO) assay) and 1100 nM on human DGKα (DGKα liposome (LIPGLO) assay). Also, the EC50 was 0.31 nM with naïve human CD8 T cells (setting [5]) and 43 nM in the assay with Human venous whole blood (Homo sapiens, 24 h, anti-CD3 plus anti-CD28, 24 hours, 3 μM reference compound = 100% activation).

As for `Cc1ccc(C(c2ccc(Cl)cc2)N2C[C@H](C)N(c3cc(=O)n(C)c4ccc(C#N)nc34)C[C@H]2C)cc1` (stereo partly drawn) [Example 299, 8-[(2S,5R)-4-[(4-chlorophenyl)(4-methylphenyl)methyl]-2,5-dimethylpiperazin-1-yl]-5-methyl-6-oxo-5,6-dihydro-1,5-naphthyridine-2-carbonitrile], the IC50 at human DGKζ (liposome (LIPGLO) assay) stood at 1100 nM; on human DGKα (liposome (LIPGLO) assay), 1700 nM. Besides, the EC50 with naïve human CD8 T cells (setting [4]) came to 17 nM; with Human venous whole blood (setting [3]), 650 nM.

Turning to `C[C@@H]1CN(c2cc(=O)n(C)c3ccc(C#N)nc23)[C@@H](C)CN1C(c1ccc(Cl)cc1)c1ccc(F)cn1` (single isomer, unassigned) [Example 192], the values for the IC50 on human DGKζ (liposome (LIPGLO) assay) and on human DGKα (liposome (LIPGLO) assay) were 1500 nM and 120 nM, respectively. Besides, the EC50 in the assay on naïve human CD8 T cells (setting [2]) was determined as 56 nM; in the assay on Human venous whole blood (setting [2]), 600 nM.

On to `C[C@@H]1CN(c2cc(=O)n(C)c3ccc(C#N)nc23)[C@@H](C)CN1C(c1ccc(F)cc1)c1cccc(F)n1` (single isomer, unassigned) [Example 471], for which the IC50 came to 520 nM on human DGKζ (liposome (LIPGLO) assay) and 250 nM at human DGKα (liposome (LIPGLO) assay). Besides, the EC50 in the assay on naïve human CD8 T cells (setting [4]) came out at 200 nM; with Human venous whole blood (setting [3]), 570 nM.

As for `C[C@@H]1CN(c2cc(=O)n(C)c3ccc(C#N)nc23)[C@@H](C)CN1C(c1ccc(F)cc1)c1ccon1` (single isomer, unassigned) [Example 707], the IC50 at human DGKζ (liposome (LIPGLO) assay) was determined as 1700 nM; on human DGKα (liposome (LIPGLO) assay), 150 nM. Also, the EC50 in the assay on naïve human CD8 T cells (setting [4]) turned out to be 44 nM; in the assay with Human venous whole blood (setting [2]) it was 400 nM.

Take `C[C@@H]1CN(c2c(C#N)c(=O)n(C)c3ccc(C#N)nc23)CCN1C(c1ccc(F)cc1)c1ccc(C(F)(F)F)cn1` (single isomer, unassigned) [Example 896]: the IC50 amounted to 600 nM on human DGKζ (DGKζ liposome (LIPGLO) assay) and 190 nM at human DGKα (DGKα liposome (LIPGLO) assay). In addition, the EC50 in the assay on naïve human CD8 T cells (setting [5]) came to 150 nM; in the assay with Human venous whole blood (setting [6]), 210 nM.
